In patent US20240383852A1, “ANTI-VIRAL COMPOUNDS” (INFEX Therapeutics Limited, priority 2021, published 2024):
Where a name gives a salt, the structure may show the parent alone.

These compounds were tested against T1, SARS-CoV-2 PLpro (Severe acute respiratory syndrome coronavirus 2, UniProt P0DTD1) (assay: biochemical). Settings: 60 nM papain-like protease, 50 μM Z-RLRGG-AMC, pH 7.5, 37° C.; read-out: SARS-CoV-2 PLpro IC50.
T1 construct: containing 60 nM papain-like protease
Compound `C[C@@H](NC(=O)c1cc(-c2ccc(C3CCNCC3)cc2)cn1C)c1cccc2ccccc12` [Example 151, 1-Methyl-N-[(1R)-1-(1-naphthyl)ethyl]-4-[4-(4-piperidyl)phenyl]pyrrole-2-carboxamide] has an IC50 of over 100 µM.
Compound `Cc1ccc(-c2cccc(S(=O)(=O)N3CCNCC3)c2)cc1C(=O)N[C@H](C)c1cccc2ccccc12` [Example 152, 2-Methyl-N-[(1R)-1-(1-naphthyl)ethyl]-5-(3-piperazin-1-ylsulfonylphenyl)benzamide] has an IC50 of under 100 µM.
In the case of `Cc1ccc(-c2cn[nH]c2)cc1C(=O)N[C@H](C)c1cccc2ccccc12` [Example 153, 2-Methyl-N-[(1R)-1-(1-naphthyl)ethyl]-5-(1H-pyrazol-4-yl)benzamide], the IC50 is reported as under 20 µM.
Work on `C[C@@H](NC(=O)c1cccc(C2CCN(CCC(=O)O)CC2)c1)c1cccc2ccccc12` [Example 164, 3-[4-[3-[[(1R)-1-(1-Naphthyl)ethyl]carbamoyl]phenyl]-1-piperidyl]propanoic acid] yielded an IC50 of under 100 µM.
For `Cc1ccc(-c2ccnc(N3CCN(CCC(=O)O)CC3)c2)cc1C(=O)N[C@H](C)c1cccc2ccccc12` [Example 169, 3-[4-[4-[4-Methyl-3-[[(1R)-1-(1-naphthyl)ethyl]carbamoyl]phenyl]-2-pyridyl]piperazin-1-yl]propanoic acid], the IC50 was under 20 µM.
`Cc1ccc(N2CCN(CC(=O)O)CC2)cc1C(=O)N[C@H](C)c1cccc2ccccc12` [Example 171, 2-[4-[4-Methyl-3-[[(1R)-1-(1-naphthyl)ethyl]carbamoyl]phenyl]piperazin-1-yl]acetic Acid] gave an IC50 of under 2 µM.
For `C[C@@H](NC(=O)c1cccc(C(=O)N2CCN(C)CC2)c1)c1cccc2ccccc12` [Example 173, 3-(4-Methylpiperazine-1-carbonyl)-N-[(1R)-1-(1-naphthyl)ethyl]benzamide], the IC50 was over 100 µM.
`C[C@@H](NC(=O)c1cccc(C(=O)NCCN(C)C)c1)c1cccc2ccccc12` [Example 174, N1-[2-(Dimethylamino)ethyl]-N3-[(1R)-1-(1-naphthyl)ethyl]benzene-1,3-dicarboxamide] gave an IC50 of under 100 µM.
Work on `C[C@@H](NC(=O)c1cccc(C2CCN(CCS(=O)(=O)c3ccccc3)CC2)c1)c1cccc2ccccc12` [Example 175, 3-[1-[2-(Benzenesulfonyl)ethyl]-4-piperidyl]-N-[(1R)-1-(1-naphthyl)ethyl]benzamide] yielded an IC50 of over 100 µM.
`C[C@@H](NC(=O)c1cccc(C2CCN(CCS(C)(=O)=O)CC2)c1)c1cccc2ccccc12` [Example 176, 3-[1-(2-Methylsulfonylethyl)-4-piperidyl]-N-[(1R)-1-(1-naphthyl)ethyl]benzamide] was tested, and the IC50 was under 100 µM.
`Cc1ccc(N2CCCN(CCS(C)(=O)=O)CC2)cc1C(=O)N[C@H](C)c1cccc2ccccc12` [Example 177, 2-Methyl-5-[4-(2-methylsulfonylethyl)-1,4-diazepan-1-yl]-N-[(1R)-1-(1-naphthyl)ethyl]benzamide] showed an IC50 of under 20 µM.
`Cc1ccc(N2CCN(C)CC2)cc1C(=O)N[C@H](C)c1cccc2c1OCCO2` [Example 183, N-[(1R)-1-(2,3-Dihydro-1,4-benzodioxin-5-yl)ethyl]-2-methyl-5-(4-methylpiperazin-1-yl)benzamide] showed an IC50 of under 20 µM.
Work on `Cc1ccc(N2CCN(C)CC2)cc1C(=O)N[C@H](C)c1cccs1` [Example 191, 2-Methyl-5-(4-methylpiperazin-1-yl)-N-[(1R)-1-(2-thienyl)ethyl]benzamide hydrochloride salt] yielded an IC50 of under 100 µM.
Compound `Cc1ccc(N2CCN(C)CC2)cc1C(=O)N[C@H](C)c1cncc(Br)c1` [Example 193, N-[(1R)-1-(5-Bromo-3-pyridyl)ethyl]-2-methyl-5-(4-methylpiperazin-1-yl)benzamide] has an IC50 of under 100 µM.
In the case of `COc1c(Br)cccc1[C@@H](C)NC(=O)c1cc(N2CCN(C)CC2)ccc1C` [Example 194, N-[(1R)-1-(3-Bromo-2-methoxy-phenyl)ethyl]-2-methyl-5-(4-methylpiperazin-1-yl)benzamide], the IC50 is reported as under 100 µM.
For `Cc1ccc(N2CCN(C)CC2)cc1C(=O)N[C@H](C)c1cc(Cl)cc(-c2cnn(C)c2)c1` [Example 257, N-[(1R)-1-[3-Chloro-5-(1-methylpyrazol-4-yl)phenyl]ethyl]-2-methyl-5-(4-methylpiperazin-1-yl)benzamide], the IC50 was under 2 µM.
With `Cc1ccc(N2CCN(C)CC2)cc1C(=O)N[C@H](C)c1cc(OCC2CC2)cc(-c2cnn(C)c2)c1` [Example 277, N-[(1R)-1-[3-(Cyclopropylmethoxy)-5-(1-methylpyrazol-4-yl)phenyl]ethyl]-2-methyl-5-(4-methylpiperazin-1-yl)benzamide] the IC50 was under 2 µM.
Work on `CCOc1cc(-c2cnn(C)c2)cc([C@@H](C)NC(=O)c2cc(N3CCN(C)CC3)ccc2C)c1` [Example 278, N-[(1R)-1-[3-Ethoxy-5-(1-methylpyrazol-4-yl)phenyl]ethyl]-2-methyl-5-(4-methylpiperazin-1-yl)benzamide] yielded an IC50 of under 2 µM.
With `Cc1ccc(N2CCN(C)CC2)cc1C(=O)N[C@H](C)c1cc(OC(C)C)cc(-c2cnn(C)c2)c1` [Example 279, N-[(1R)-1-[3-Isopropoxy-5-(1-methylpyrazol-4-yl)phenyl]ethyl]-2-methyl-5-(4-methylpiperazin-1-yl)benzamide] the IC50 was under 2 µM.
In the case of `Cc1ccc(N2CCN(C)CC2)cc1C(=O)N[C@H](C)c1cc(OCCO)cc(-c2cnn(C)c2)c1` [Example 281, N-[(1R)-1-[3-(2-Hydroxyethoxy)-5-(1-methylpyrazol-4-yl)phenyl]ethyl]-2-methyl-5-(4-methylpiperazin-1-yl)benzamide], the IC50 is reported as under 2 µM.
In the case of `Cc1ccc(N2CCN(C)CC2)cc1C(=O)N[C@H](C)c1cc(OC(F)F)cc(-c2cnn(C)c2)c1` [Example 283, N-[(1R)-1-[3-(Difluoromethoxy)-5-(1-methylpyrazol-4-yl)phenyl]ethyl]-2-methyl-5-(4-methylpiperazin-1-yl)benzamide], the IC50 is reported as under 2 µM.
Work on `COc1cc(-c2cn(C)nc2C)cc([C@@H](C)NC(=O)c2cc(C3CCNCC3)ccc2C)c1` [Example 304, N-[(1R)-1-[3-(1,3-Dimethylpyrazol-4-yl)-5-methoxy-phenyl]ethyl]-2-methyl-5-(4-piperidyl)benzamide] yielded an IC50 of under 2 µM.
Work on `COc1cc([C@@H](C)NC(=O)c2cc(N3CCN(C)CC3)ccc2C)ccc1O` [Example 305, N-[(1R)-1-(4-Hydroxy-3-methoxy-phenyl)ethyl]-2-methyl-5-(4-methylpiperazin-1-yl)benzamide] yielded an IC50 of under 5 µM.
`Cc1ccc(N2CCN(C)CC2)cc1C(=O)N[C@H](C)c1cccc(C(=O)N2CCN(C)CC2)c1` [Example 307, 2-Methyl-N-[(1R)-1-[3-(4-methylpiperazine-1-carbonyl)phenyl]ethyl]-5-(4-methylpiperazin-1-yl)benzamide] was tested, and the IC50 was under 2 µM.
Work on `Cc1ccc(N2CCN(C)CC2)cc1C(=O)N[C@H](C)c1cccc(C(=O)NCCO)c1` [Example 313, N-[(1R)-1-[3-(2-Hydroxyethylcarbamoyl)phenyl]ethyl]-2-methyl-5-(4-methylpiperazin-1-yl)benzamide] yielded an IC50 of under 20 µM.
In the case of `CNCCN(C)C(=O)c1cccc([C@@H](C)NC(=O)c2cc(N3CCN(C)CC3)ccc2C)c1` [Example 314, 2-Methyl-N-[(1R)-1-[3-[methyl-[2-(methylamino)ethyl]carbamoyl]phenyl]ethyl]-5-(4-methylpiperazin-1-yl)benzamide Dihydrochloride Salt], the IC50 is reported as under 20 µM.
